Test results taken from article PMC8970883, “Simultaneous Determination of Seven Phenolic Acids, Two Flavonoids, and Tussilagone in Rat Plasma after Administration of Farfarae Flos Extract by LC–MS/MS” (Evidence-based Complementary and Alternative Medicine : eCAM, 2022).
Where two headings read alike, the source gives them in different places.

How the values were obtained:
[1] = Pharmacokinetic study in rats after intragastric administration of Farfarae Flos extract (plasma, LC-MS/MS); format: in vivo; settings: for Cmax / Tmax / half-life / MRT last / MRT inf: male; for Cmax: rat, plasma, po; for MRT last: read-out: MRT(0–24h); for MRT inf: read-out: MRT(0–∞)
From the text: A high-performance liquid chromatography instrument was used to separate three types of compounds (Agilent 1200 series, USA). The HPLC instrument is composed of four parts; a G1322A degasser, G1312A Bin Pump, G1367B auto-sampler, and G1316A thermostatic column compartment. Three types of compounds and three internal standards (ISs) were separated on an Eclipse Plus C18 (4.6 × 100 mm, 1.8 μm). The mobile phase was composed of formic acid aqueous solution (A) and formic acid methanol solution (B). The concentration of formic acid in both A and B solution was 0.1% (v/v). The gradient elution was as follows. The proportion of 10% B changes to 40% from 0 min to 3mins. 40% B changes to 90% from 16 to 18 min. B is maintained at 100% from 19 to 28 min. The flow rate, sample injected volume, and column temperature was 0.35 mL·min^−1, 10 μL, and 35°C, respectively.
Quantitative analysis of all samples was performed on Sciex API 3200 with an electrospray ionization (ESI) source. Analyst 1.6.2 workstation for instrument operation, data management, and data analysis were employed to analyze and process data (AB, Sciex). Ten analyzed compounds and three ISs were optimized during multiple reactions monitoring (MRM). […] MRM parameters of CCLA were set at 353.1-191.0. […] MRM parameters of IAB were set as 515.3-353.2 and MRM parameters of IAA were set at 515.2-353.0. MRM parameters of IAC and tussilagone were set as 515.3-352.9, 391.4-217.4, respectively.
Twenty male rats (4 months old, weight 240 ± 20 g) were obtained commercially from Vital River Laboratory Animal Company (Beijing, China). Before the pharmacokinetic experiments, they were free to eat food and drink water for one week for adapting to the environment when the dark light cycle was 12 hours, while the temperature was maintained at 25 ± 5°C. The animal experiments were guided and strictly approved by Tianjin Hospital animal ethics committee. They were fasted for 12 hours and could only drink freely water before intragastric administration of Farfarae Flos extract. Ten rats in each group were employed for eliminating data variation caused by different animal individuals. All rats in groups 1 and group 2 were orally administrated one time at two dosages of Farfarae Flos extract (carboxymethyl cellulose sodium salt (0.5%) was used to suspend the extract to prepare the administration solution 3.90 g·kg^−1 and 7.80 g·kg^−1), respectively. Rats were anesthetized with ether. The heparinized 1.5 mL polythene tube was used to collect bank plasma samples before administering dose of the extract. About 250 μL plasma samples were collected at each collecting points of 5 min, 10 min, 0.25 h, 0.50 h, 0.75 h, 1 h, 2 h, 4 h, 8 h, 12 h, 24 h, and 36 h via fossa orbitalis after dosing. All plasma samples from collecting points need to be centrifuged at 4,000 rpm for ten minutes. The supernatant fluid of centrifuged plasma samples was obtained and immediately stored at −20°C in a refrigerator until they were analyzed.
The maximum concentration (Cmax) and the time to reach the maximum concentration (Tmax) of ten target compounds were directly calculated by the real concentration-time data in the plasma. The data were expressed as mean ± SD.
Ten microliters of ISs solution (contained puerarin, ferulic acid, and artemisinin) and the plasma sample (100 μL) were added into a clean tube, and then acetonitrile (400 μL) was added to precipitate protein. After centrifugation at 14000 rpm for 10 minutes, a mild nitrogen flow was used to evaporate the liquid of the supernatant to dryness. Then, the residue was dissolved in methanol (100 μL). The solution was vortexed for 3 min, mixed for 3 minutes with ultrasound, and centrifuged for 10 min. Finally, the solution (10 μL) was used to detect concentration of ten target compounds in rat plasma.

[2] = Stability of QC samples in rat plasma (24 h, freeze-thaw, 4 weeks); format: in vitro ADME; settings: six replicates; for 24 h stability Remain (%): 24 hours at 20°C; for Freeze-thaw stability, percent remaining: freeze-thaw cycles −20°C to 20°C; for Long stability Remain (%): stored at −80°C for 4 weeks
Description: Stock solution of 10 analytical compounds (1.00 mg·mL^−1) and three internal standards (ISs) was dissolved in methanol and placed in the refrigerator before testing. Methanol was used to prepare ferulic acid (IS1), puerarin (IS2), and artemisinin (IS3) solutions to reach a concentration of 1 μg mL^−1, respectively. A specific volume of each analyte stock solution is mixed together to prepare the standard working solution containing 10 analytes with a concentration of 10 times at LLOQ and three levels (high, medium, and low). Quality control (QC) samples for methodological validation were prepared to obtain the final concentration by adding standard working solution (10 μL) into blank plasma samples (100 μL).
Four concentration levels of ICB and ICA were 4, 12, 400, and 12000 ng mL^−1, respectively. Four concentration levels of caffeic acid were 10, 30, 1000, and 30000 ng·mL^−1, respectively.
In the stability test, 24-hour stability (The samples were placed for 24 hours at 20°C and then measured), freeze-thaw cycles (The sample was injected after the temperature changing from −20°C to 20°C), and 4 weeks stability (The sample was determined after stored at −80°C for 4 weeks) of representative QC samples were all tested. All of them were assayed with six replicates.

[3] = 3.9 g/kg, oral Farfarae Flos extract 3.9 g·kg^−1, mean ± SD
[4] = 7.8 g/kg, oral Farfarae Flos extract 7.8 g·kg^−1, mean ± SD
[5] = rat plasma, oral Farfarae Flos extract 3.9 g·kg^−1, mean ± SD
[6] = rat plasma, oral Farfarae Flos extract 7.8 g·kg^−1, mean ± SD
[7] = high concentration level (3000-30000 ng·mL^−1)
[8] = low concentration level (3-30 ng·mL^−1)
[9] = medium concentration level (100-1000 ng·mL^−1)

Cmax [1, 3] | Cmax [1, 4] | Tmax [1, 5] | half-life [1, 5] | MRT last [1, 5] | MRT inf [1, 5] | Tmax [1, 6] | half-life [1, 6] | MRT last [1, 6] | MRT inf [1, 6] | AUC(0–24h) [1, 5] | AUC(0–24h) [1, 6] | AUC(0–∞) [1, 6] | 24 h stability Remain (%) [2, 7] | Freeze-thaw stability, percent remaining [2, 7] | Long stability Remain (%) [2, 7] | Freeze-thaw stability, percent remaining [2, 8] | Long stability Remain (%) [2, 8] | Freeze-thaw stability, percent remaining [2, 9] | AUC(0–∞) [1, 5] | SMILES | also measured
177 ± 131 ng/mL | > 1000 ng/mL | 0.64 ± 0.2 h | 1.03 ± 0.53 h | 4.17 ± 1.73 h | 5.16 ± 2.01 h | 0.39 ± 0.2 h | 1.06 ± 0.58 h | 5.02 ± 2.07 h | 6.23 ± 2.1 h | 422.3 ± 210.5 ng/mL ∗ h | 1938 ± 1401 ng/mL ∗ h | 2019 ± 1397 ng/mL ∗ h | 112% | 93.2% | 95.9% | 96.8% | 97.5% | 82.9% | 585.7 ± 414.0 ng/mL ∗ h | O=C(/C=C/c1ccc(O)c(O)c1)O[C@H]1[C@H](O)C[C@](O)(C(=O)O)C[C@H]1O [CCLA, cryptochlorogenic acid] | 24 h stability Remain (%) [2, 8]: 98.4%; 24 h stability Remain (%) [2, 9]: 112%; Long stability Remain (%) [2, 9]: 98.6%
47.3 ± 29.6 ng/mL | 265 ± 95.5 ng/mL | 0.56 ± 0.25 h | 4.25 ± 6.16 h | 5.79 ± 3.25 h | 18.7 ± 18.6 h | 0.35 ± 0.21 h | 1.37 ± 0.83 h | 8.8 ± 2.73 h | 13.8 ± 4.86 h | 187 ± 85.5 ng/mL ∗ h | 823.4 ± 182.9 ng/mL ∗ h | 941.9 ± 204.7 ng/mL ∗ h | 97.6% | 93.7% | 106% | 106% | 102% | 98.6% | 319.1 ± 217.3 ng/mL ∗ h | O=C(C=Cc1ccc(O)c(O)c1)OC1CC(O)(C(=O)O)CC(O)C1OC(=O)C=Cc1ccc(O)c(O)c1 (stereo not drawn) [IAC, isochlorogenic acid C] | 24 h stability Remain (%) [2, 8]: 91.7%; 24 h stability Remain (%) [2, 9]: 105%; Long stability Remain (%) [2, 9]: 108%
74 ± 52 ng/mL | 486 ± 273 ng/mL | 0.69 ± 0.19 h | 1.61 ± 1.1 h | 4.35 ± 2.74 h | 7.9 ± 7.34 h | 0.36 ± 0.13 h | 1.49 ± 0.54 h | 6.33 ± 2.33 h | 8.61 ± 2.66 h | 210.2 ± 126.4 ng/mL ∗ h | 965.7 ± 295.9 ng/mL ∗ h | 1028 ± 3007 ng/mL ∗ h | – | 87.0% | 114% | 111% | – | 82.9% | 239.3 ± 125.3 ng/mL ∗ h | O=C(/C=C/c1ccc(O)c(O)c1)O[C@@H]1C[C@@](O)(C(=O)O)C[C@@H](O)[C@@H]1O [NCLA, neochlorogenic acid] | –

The next lines start with the compound.

SMILES | Cmax [1, 3] | Cmax [1, 4] | Tmax [1, 5] | half-life [1, 5] | MRT last [1, 5] | MRT inf [1, 5] | Tmax [1, 6] | half-life [1, 6] | MRT last [1, 6] | MRT inf [1, 6] | AUC(0–24h) [1, 5] | AUC(0–24h) [1, 6] | AUC(0–∞) [1, 6] | 24 h stability Remain (%) [2, 7] | Freeze-thaw stability, percent remaining [2, 7] | Long stability Remain (%) [2, 7] | Freeze-thaw stability, percent remaining [2, 8] | Long stability Remain (%) [2, 8] | Freeze-thaw stability, percent remaining [2, 9] | AUC(0–∞) [1, 5] | also measured
O=c1c(O[C@@H]2O[C@H](CO)[C@@H](O)[C@H](O)[C@H]2O)c(-c2ccc(O)c(O)c2)oc2cc(O)cc(O)c12 [Isoquercitrin, isoquercitrin] | 5.81 ± 5.72 ng/mL | 10.2 ± 6.83 ng/mL | 0.44 ± 0.26 h | 0.88 ± 1.01 h | 3.16 ± 3.46 h | 7.56 ± 6.22 h | 0.27 ± 0.1 h | 1.19 ± 1.65 h | 2.81 ± 1.79 h | 9.94 ± 10.4 h | 7.284 ± 5.643 ng/mL ∗ h | 16.15 ± 12.24 ng/mL ∗ h | 25.18 ± 13.92 ng/mL ∗ h | 113% | 110% | 92.3% | 104% | 92.0% | 111% | – | 24 h stability Remain (%) [2, 8]: 84.4%; 24 h stability Remain (%) [2, 9]: 113%; Long stability Remain (%) [2, 9]: 105%
C[C@@H]1O[C@@H](OC[C@H]2O[C@@H](Oc3c(-c4ccc(O)c(O)c4)oc4cc(O)cc(O)c4c3=O)[C@H](O)[C@@H](O)[C@@H]2O)[C@H](O)[C@H](O)[C@H]1O [Rutin, rutin] | 17.9 ± 17.6 ng/mL | 76.7 ± 55.5 ng/mL | – | 0.61 ± 0.46 h | 1.95 ± 1.06 h | 3.06 ± 1.3 h | 0.32 ± 0.12 h | – | 2.79 ± 0.24 h | 6.02 ± 4.7 h | 39.49 ± 59.42 ng/mL ∗ h | 104.04 ± 53.04 ng/mL ∗ h | – | – | 116% | 89.6% | – | 97.0% | – | 42.77 ± 60.06 ng/mL ∗ h | T max [1, 5]: 0.39 ± 0.16 h; t 1/2 [1, 6]: 0.82 ± 0.51 h
C=C1[C@H](OC(=O)/C=C(\C)CC)C[C@@H](C(C)C)[C@@H]2[C@@H]([C@@H](C)OC(C)=O)C(=O)C[C@@H]12 [Tussilagone, tussilagone] | 0.83 ± 0.5 ng/mL | 18.1 ± 13 ng/mL | 0.44 ± 0.38 h | 0.28 ± 0.2 h | 0.87 ± 0.134 h | 3.12 ± 2.62 h | 0.4 ± 0.33 h | 0.82 ± 0.72 h | 2.42 ± 2.1 h | 6.98 ± 9.13 h | 1.06 ± 0.564 ng/mL ∗ h | 35.48 ± 42.302 ng/mL ∗ h | 47.12 ± 49.445 ng/mL ∗ h | 95.0% | 91.8% | 109% | 83.9% | 101% | 115% | 2.19 ± 1.98 ng/mL ∗ h | Terminal elimination half-life ([1]; rat plasma, compared among the three types of compounds, Farfarae Flos extract 3.90 and 7.80 g·kg^−1): shortest; 24 h stability Remain (%) [2, 8]: 100%; 24 h stability Remain (%) [2, 9]: 92.1%; Long stability Remain (%) [2, 9]: 107%
